Laboratory results from patent US20130130306A1, “ZN (II) BASED COLORIMETRIC SENSOR AND PROCESS FOR THE PREPARATION THEREOF” (COUNCIL OF SCIENTIFIC & INDUSTRIAL RESEARCH, priority 2010, published 2013).

System: Bacillus megaterium (Gram +ve)
Assay: Staining of Gram +ve bacteria, light microscopy
Type: cell-based
Parameters: change in color of bacterial stains: dose or concentration left out as unconfirmed
Protocol: The isolates of Saccharomyces sp. were cultured in GYE (glucose yeast extract agar) media, Bacillus sp. in Nutrient broth, and Pseudomonas sp. in King's B medium for 24 hour at 37° C. […] of this was taken and was allowed to incubate at 30 to 40° C. along with 100 μl of L.Zn (Scheme 1, Formula 1A) (1.16×10^−4 M) solution. The samples were fixed overnight at room temperature 25-30° C. with 2% (v/v) glutaraldehyde in 0.1 M phosphate buffer at pH 7.5. The samples were then washed with 0.1 M phosphate buffer (pH 7.5) at room temperature 25-30° C. for 1 hour. Post-fixation was carried out in 2% (w/v) osmium tetroxide (OsO4) in the same buffer and was washed once with 0.1 M phosphate buffer for 20 minutes. […]
We also explored the possibility of using L.Zn/L.Zn.α-CD as the staining agent for prokaryotes (Gram +ve and Gram −ve bacterial cells). […] Changes on the cell surfaces on binding of the dye, L.Zn (Scheme 1, Formula 1A) were also evident from the SEM images recorded for Gram −ve and Gram +ve bacteria, in absence and presence of staining agent (FIGS. 11C to 11F). […] The growth profile of Eukaryotic Yeast cells (Saccharomyces cerevisiae) and Prokaryotic bacterial cells ([…]) in an aqueous culture medium in absence and presence of L.Zn (Scheme 1, Formula 1A) are shown in FIG. 12. […]

## CN(C)c1ccc(N=Nc2ccc(S(=O)(=O)N3CCCNCCNCCCNCC3)cc2)cc1.O=[N+]([O-])[O-].O=[N+]([O-])[O-].[Zn+2] [L.Zn]
Bacillus species in Nutrient broth, sensor 1.0×10^−4 M, 25° C., 10 mins
  growth of colonies streaked on nutrient agar plates after incubation with sensor: colonies of the test microbes grew
Light microscopy
  change in color of bacterial stains: distinct change in color
